These results are taken from patent US4584369A, “Anti-leukemic beta-glycosyl C-nucleosides” (Sloan-Kettering Institute for Cancer Research, priority 1984, dated 1986).

Converted amounts (≈) assume the structure as drawn.

One assay has as its system P-815. Briefly: In vitro activity in mouse leukemic cell line P-815. The format is cell-based. The conditions noted are these: P815, P-815, in vitro, read-out: ID50 (the source's name). From the text: (§1) CNUCLEOSIDES IN MOUSE AND HUMAN LEUKYMIC CELL LINES
(§2) It is noted that the first compound in Table 1 is the compound reported in Lim et al (supra).

For the next assay, the system named is HL-60. Put plainly: In vitro activity in human leukemic cell line HL-60. The format is cell-based. The conditions noted are these: HL-60, in vitro, read-out: ID50 (the source's name).
From the text: as §1, §2

Another assay has as its system RAJI. Put plainly: In vitro activity in human leukemic cell line RAJI. The format is cell-based. Conditions: read-out: ID50 (the source's name).
From the text: as §1, §2

The test system of another assay is L-1210. Put plainly: In vitro activity in mouse leukemic cell line L-1210. The format is cell-based. The conditions noted are these: L1210, L-1210, in vitro, read-out: ID50 (the source's name).
From the text: as §1, §2

The next assay concerns ALL-CCRF-CEM. Put plainly: In vitro activity in human leukemic cell line ALL-CCRF-CEM. In kind it is cell-based. The conditions noted are these: read-out: ID50 (the source's name).
From the text: as §1, §2

The next assay has as its system P-815/0. Briefly: In vivo activity of C-nucleosides in mice, P-815/0 line.
From the text: (§3) IN VIVO ACTIVITY OF CNUCLEOSIDES IN MICE
as §2

A further assay has as its system leukemic cells. Briefly: Anti-leukemic / antitumor activity using usual techniques of the art (summary statements). The format is cell-based, mouse and human. Conditions: in words.
From the text: as §2

The subject of the next assay is P-815/ARA C. Put plainly: In vivo activity of C-nucleosides in mice, P-815/ARA C line.
From the text: as §3, §2

A further assay has as its system L-1210/MP. Briefly: In vivo activity of C-nucleosides in mice, L-1210/MP line. The conditions noted are these: Q4D × 3,D1 @ 0.4 MG/KG.
From the text: as §3, §2

The test system of the next assay is L-1210/0. Put plainly: In vivo activity of C-nucleosides in mice, L-1210/0 line.
From the text: as §3, §2

With `O=c1[nH]cnc2c([C@@H]3O[C@H](CO)[C@@H](O)[C@H]3O)csc12` [X = S, R1 = OH, R2 = H, 7-(β-D-Ribofuranosyl)-3H-4-oxo-thieno[3,2-d]pyrimidine], the IC50 with P-815 came to 2.5 µg/mL (≈ 8.79 µM); in the assay with HL-60, 0.4 µg/mL (≈ 1.41 µM); in the assay on RAJI it was 4.2 µg/mL (≈ 14.8 µM); with L-1210 it was 3.3 µg/mL (≈ 11.6 µM); in the assay on ALL-CCRF-CEM, 0.9 µg/mL (≈ 3.17 µM).
On to `CSc1ncnc2c([C@@H]3O[C@H](CO)[C@@H](O)[C@H]3O)csc12` [X = S, R1 = SMe, R2 = H, 7-(β-D-Ribofuranosyl)-4-methylthio-thieno[3,2-d]pyrimidine], for which the IC50 with P-815 came to 0.03 µg/mL (≈ 0.0954 µM); in the assay with HL-60, 0.008 µg/mL (≈ 0.0254 µM); in the assay with RAJI, 0.03 µg/mL (≈ 0.0954 µM); in the assay on L-1210, 0.07 µg/mL (≈ 0.223 µM); in the assay with ALL-CCRF-CEM, 0.006 µg/mL (≈ 0.0191 µM). The results for the “% ILS” value in the assay with P-815/0 (Q4D × 4,D1 @ 40 MG/KG) and in the assay with P-815/0 (QD × 2/Q2D × 3 @ 60 MG/KG) were 56.3% and 71.4%, respectively.
Turning to `OC[C@H]1O[C@@H](c2c[nH]c3c(=S)[nH]cnc23)[C@H](O)[C@@H]1O` [X = NH, R1 = SH, R2 = H], the IC50 in the assay with P-815 stood at 5.6 µg/mL (≈ 19.8 µM).
As for `Nc1ncnc2c([C@@H]3O[C@H](CO)[C@@H](O)[C@H]3O)csc12` [X = S, R1 = NH2, R2 = H, 7-(β-D-ribofuranosyl)-4-amino-thieno[3,2-d]pyrimidine], the IC50 in the assay on P-815 worked out at 0.0003 µg/mL (≈ 0.00106 µM); in the assay with HL-60 it was 0.0005 µg/mL (≈ 0.00176 µM); with RAJI, 0.002 µg/mL (≈ 0.00706 µM); in the assay with L-1210, 0.0006 µg/mL (≈ 0.00212 µM); in the assay with ALL-CCRF-CEM, 0.0005 µg/mL (≈ 0.00176 µM).
In the case of `O=c1[nH]cnc2c([C@@H]3O[C@H](CO)[C@@H](O)[C@H]3O)c[nH]c12` [X = NH, R1 -- OH, R2 = H, reference compound], the “antitumor / anti-leukemic activity” value with leukemic cells (listed as X--NH, R1 =OH) was “essentially no antitumor activity”; in the assay with leukemic cells (listed as first compound in Table 1), “lack of activity”. Further, the IC50 in the assay on P-815 was over 10 µg/mL; in the assay on HL-60, over 100 µg/mL; with RAJI, over 100 µg/mL; in the assay with L-1210, over 100 µg/mL; in the assay with ALL-CCRF-CEM, over 100 µg/mL.
For `OC[C@H]1O[C@@H](c2csc3c(=S)[nH]cnc23)[C@H](O)[C@@H]1O` [X = S, R1 = SH, R2 = H, 7-(β-D-ribofuranosyl)-3H-4-thiono-thieno[3,2-d]pyrimidine], the IC50 with P-815 was 0.5 µg/mL (≈ 1.66 µM); in the assay on HL-60, 0.4 µg/mL (≈ 1.33 µM); in the assay with RAJI, 0.9 µg/mL (≈ 3 µM); in the assay on L-1210 it was 0.6 µg/mL (≈ 2 µM); in the assay with ALL-CCRF-CEM, 1.6 µg/mL (≈ 5.33 µM).
Take `Nc1nc[nH]c2c([C@@H]3O[C@H](CO)[C@@H](O)[C@H]3O)cnc1-2` [X = NH, R1 = NH2, R2 = H, 7-(β-D-Ribofuranosyl)-4-amino-pyrrolo[3,2-d]pyrimidine]: the “% ILS” value in the assay with P-815/ARA C (Q4D × 3,D1 @ 0.4 MG/KG) was found to be 19.8%; in the assay with P-815/ARA C (Q4D × 3,D1 @ 0.7 MG/KG), 30.8%; in the assay on L-1210/MP, 71.8%; with L-1210/0 (Q4D × 3,D1 @ 0.25 MG/KG), 17.0%; in the assay with L-1210/0 (QD × 5,D1 @ 0.5 MG/KG) it was 9.1%. Moreover, the IC50 with P-815 was 0.001 µg/mL (≈ 0.00376 µM); in the assay on HL-60 it was 0.0003 µg/mL (≈ 0.00113 µM); with RAJI it was 0.002 µg/mL (≈ 0.00751 µM); with L-1210, 0.0008 µg/mL (≈ 0.003 µM); with ALL-CCRF-CEM, 0.0008 µg/mL (≈ 0.003 µM).
Turning to `CSc1ncnc2c([C@@H]3O[C@H](CO)[C@@H](O)[C@H]3O)c[nH]c12` [X = NH, R1 = SMe, R2 = H], the IC50 with P-815 is 0.3 µg/mL (≈ 1.01 µM).
